From US20180327806A1, “MULTIPLEX HIGH-[…] OF MICRO-ORGANISM STRAINS, RELATED KITS, D[…] AND SCREENING ASSAYS” (THE BROAD INSTITUTE, INC., priority 2015, published 2018)

Columns and labels:
[1] = tested on: PA14 strain with MurA knockdown (hypomorph); assay: Growth of PA14 MurA knockdown (hypomorph) strain with drug; format: cell-based, Pseudomonas aeruginosa
Text: Engineering hypersusceptible strains (hypomorph strains): Strain PA14 is engineered so that the expression of selected essential genes may be lowered using a ‘weaker’ promoter. […] 30). It is possible to use a promoter library of varying strengths that was developed to drive GFP expression in E. coli (Davis, J. H., A. J. Rubin, and R. T. Sauer, Design, construction and characterization of a set of insulated bacterial promoters. Nucleic Acids Res, 2011. 39(3): p. 1131-41). […] The weakest promoter that provides the lowest tolerable level of the protein that still yields a viable bacterium may be used for each essential gene to create a hypersensitive strain. It is also proposed to construct control strains by knocking out dihydrofolate reductase dhfr (which is the target of trimethoprim), dihydropteroate synthetase dhps (which is the target of sulfamethoxazole), murA (which is the target of fosfomycin) and ostA (which is the OMP target of POL7001 [Srinivas, N., et al., Peptidomimetic antibiotics target outer-membrane biogenesis in Pseudomonas aeruginosa. Science, 2010. 327(5968): p. 1010-3.]). Then, it is possible to measure the MIC for each of these compounds against their respective strains compared to wild-type PA14.
FIG. 5 illustrates the use of variable promoters for generating and selecting hypomorph strains. […]

dfrA hypomorph strain = format: cell-based, M. tuberculosis; settings: drug targeting dfrA

For `C[C@@H]1O[C@@H]1P(=O)(O)O` [fosfomycin], which “sensitivity of MurA knockdown PA14 strain to drug” value [1] is on record?
Its value is “hypersensitive”.

With `CN(Cc1cnc2nc(N)nc(N)c2n1)c1ccc(C(=O)N[C@@H](CCC(=O)O)C(=O)O)cc1` [methotrexate] as the compound, how does the “sensitivity of dfrA hypomorph strain to drug (dose response curve)” value (dfrA hypomorph strain) read?
Its value is “hypersensitive”.
